Data reported in paper PMC5046737, “Target and Non-target Site Mechanisms Developed by Glyphosate-Resistant Hairy beggarticks (Bidens pilosa L.) Populations from Mexico” (Frontiers in Plant Science, 2016).

Legend:
[1] = test system: T1, EPSPS of the resistant R2 population (EPSPS1 and EPSPS2); experiment: EPSPS activity in leaf extract, continuous phosphate release (EnzChek); type: biochemical, Bidens pilosa; details: raw leaf extract, mixed isozymes; no EPSPS mutation found in this resistant population; read-out: I50
T1 construct: native enzyme in raw leaf extract; isozyme mix unknown

[2] = test system: EPSPS of the resistant R1 population (EPSPS1 and EPSPS2, mixed alleles); details: read-out: I50; raw leaf extract, mixed isozymes and alleles (wild type, P106S, T102I/P106S); stated gain
Source text: EPSPS activity in leaf extract, continuous phosphate release (EnzChek) on EPSPS of the resistant R1 population (EPSPS1 and EPSPS2, mixed alleles)

[3] = test system: T2, EPSPS of the susceptible (S) population (EPSPS1 and EPSPS2); experiment: EPSPS activity in leaf extract, continuous phosphate release (EnzChek); type: biochemical, Bidens pilosa; details: raw leaf extract, mixed isozymes; 10 min at 360 nm; glyphosate 0-10000 μM; text prints 0.95 μM; read-out: I50
T2 construct: native enzyme in raw leaf extract; both isozymes expressed

Molecule O=C(O)CNCP(=O)(O)O [glyphosate] has an IC50 [1] of 8.2 ± 1.1 µM, an IC50 [2] of 123 ± 2.1 µM and an IC50 [3] of 960 nM.
